In patent US20080045595A1, “METHOD OF TREATING CANCER” (Myriad Genetics, Incorporated, priority 2004, published 2008):
Entries after “also recorded” stand apart in the source; their conditions may differ.

What was measured:
[1] = system: MCF-7, a human breast cancer cell line; assay: Cytotoxicity (ATPLite cell growth inhibition), Example 1, MCF-7 cells; format: cell-based; conditions: MCF7a, 72 hours exposure, ATPLite assay, mean ± standard deviation, read-out: IC50 (concentration that inhibited growth by 50%)
Method: (§1) A. MCF-7, a human breast cancer cell line was obtained from ATCC (Catalog number: HTB-22)
(§2) MCF-7 cells were supplemented additionally with 10 μg/ml recombinant human insulin.
(§3) All compounds were tested triplicate.

[2] = system: NCI/ADR-RES, a multi drug resistant cell line over-expressing MDR-1; assay: Cytotoxicity (ATPLite cell growth inhibition), Example 1, MDR-1 over-expressing cells; format: cell-based; conditions: Homo sapiens, MDR1; NCI/ADR-RES cells (MDR-1 over-expressing), 72 hours exposure, ATPLite assay, mean ± standard deviation; read-out: IC50 (concentration that inhibited growth by 50%)
Method: B. NCl/ADR-RES, a multi drug resistant cell line over-expressing MDR-1 was obtained from NCl, Frederick, Md. This cell line has previously been called MCF-7/ADR by NCl.
as §2, §3

[3] = system: MCF-7, a human breast cancer cell line; assay: Cytotoxicity (ATPLite cell growth inhibition), Example 3, MCF-7 cells; format: cell-based; conditions: MCF7a, 72 hours exposure, ATPLite assay, mean ± standard deviation, read-out: IC50 (concentration that inhibited growth by 50%)
Method: as §1
(§4) All compounds were tested in triplicate.

[4] = system: MCF-7/MX, a multi drug resistant cell line over-expressing BCRP; assay: Cytotoxicity (ATPLite cell growth inhibition), Example 3, BCRP over-expressing cells; conditions: for IC50: Homo sapiens, MCF7/MX, 72 h, read-out: IC50 (concentration that inhibited growth by 50%); for Difference in cytotoxic activity between normal (MCF-7) and BCRP over-expressing (MCF-7/MX) cell line: ratio of IC50 MCF-7/MX versus MCF-7
Method: Methods: The tumor cells were plated at 5,000 cells/well in a 96 well tissue culture plate and grown for 24 hours at 37° C. The cells were then exposed to various concentrations of 5-chloro-N-[2-(4-chloro-naphtalen-1-yloxy)-5-trifluoromethyl-phenyl]-2-hydroxy-benzamide, Camptothecin or Epirubicin for 72 hours and the inhibition of cell growth due to exposure to the drug was determined using the ATPLite assay. Data are expressed as the concentration that inhibited growth by 50%.
Stock solutions of compounds dissolved in DMSO were used to prepare compound dilutions for activity determination. 5-chloro-N-[2-(4-chloro-naphtalen-1-yloxy)-5-trifluoromethyl-phenyl]-2-hydroxy-benzamide was tested at a final concentration of 100 μM, 33.3 μM, 11.1 μM, 3.7 μM, 1.23 μM, 0.4 μM and 0.13 μM for both cell lines. CPT-11 was tested at 1 μM, 0.33 μM, 0.1 μM, 0.04 μM, 0.012 μM, 0.004 μM and 0.001 μM in MCF-7 cells and at 10 μM, 3.3 μM, 1.1 μM, 0.37 μM, 0.12 μM, 0.04 μM and 0.013 μM in MCF-7/MX cells. Epirubicin was tested at 10 μM, 3.3 μM, 1.1 μM, 0.37 μM, 0.12 μM, 0.04 μM and 0.013 μM for MCF-7 cells and at 100 μM, 33.3 μM, 11.1 μM, 3.7 μM, 1.23 μM, 0.4 μM and 0.13 μM for MCF-7/MX cells. The final concentration of DMSO in all cases was adjusted to 0.2% v/v.
Both cell lines were cultured in RPMI-1640 supplemented with 10% fetal bovine serum, 2 mM Glutamax, 1 mM sodium pyruvate, 0.1 mM non-essential amino acids, 10 μg/ml recombinant human insulin and 10 mM Hepes. All cell lines were grown at 37° C. in a humidified 5% CO2 atmosphere.
For testing the effect of compounds on cell growth, exponentially growing cells were harvested by trypsinization and plated in fresh growth medium at 50,000 cells/ml, one hundred microlitres cell suspension per well, in a 96-well flat-bottomed microtiter plate (Corning, Costar 3595). Twenty-four hours later, culture medium was replaced with fresh growth medium and varying concentrations of test compound.
For both cell lines, cells were incubated with compound for three days and cellular viability was determined at the end of the incubation by measuring intracellular ATP with ATPLite assay system. All compounds were tested in triplicate.
Effect of compounds on cell viability was calculated by comparing the ATP levels of cells exposed to test compound with those of cells exposed to DMSO. A semi-log plot of relative ATP levels versus compound concentration was used to calculate the compound concentration required to inhibit growth by 50% (IC50). Data was analyzed by Prism software (GraphPad; San Diego, Calif.) by fitting it to a sigmoidal dose response curve. The IC50 values obtained for individual data sets were combined to obtain a mean IC50 and standard deviation of the mean.

[5] = system: MCF-7, a human breast cancer cell line; assay: Cytotoxicity (ATPLite cell growth inhibition), Example 2, MCF-7 cells; format: cell-based; conditions: MCF7a, 72 hours exposure, ATPLite assay, mean ± standard deviation, read-out: IC50 (concentration that inhibited growth by 50%)
Method: as §1, §4

[6] = system: MCF-7/VP, a multi drug resistant cell line over-expressing MRP-1; assay: Cytotoxicity (ATPLite cell growth inhibition), Example 2, MRP-1 over-expressing cells; format: cell-based; conditions: Homo sapiens, MCF7-VP; MCF-7/VP cells (MRP-1 over-expressing), 72 hours exposure, ATPLite assay, mean ± standard deviation; read-out: IC50 (concentration that inhibited growth by 50%)
From the text: Over-expression of the product of the ABCC1 gene encoding the multidrug resistance associated protein 1 confers resistance to a wide variety of agents including etoposide, methotrexate, cisplatins and anthracyclines. […] MCF-7/VP cells, a MCF-7 derivative selected for resistance to etoposide, over-express the MRP-1 protein (1).
B. MCF-7/VP, a multi drug resistant cell line over-expressing MRP-1 was obtained from Dr. Erasmus Schneider, Wadsworth Center, NYS Dept. of Health, Albany, N.Y. 12237.
as §4

[7] = Oral bioavailability; format: in vivo; conditions: oral administration

| Bioavailability when administered orally [7] | SMILES | IC50 [1] | IC50 [2] | IC50 [3] | IC50 [4] | Difference in cytotoxic activity between normal (MCF-7) and BCRP over-expressing (MCF-7/MX) cell line [4] | IC50 [5] | IC50 [6] |
| --- | --- | --- | --- | --- | --- | --- | --- | --- |
|  | CC(=O)O[C@@]12CO[C@@H]1C[C@H](O)[C@@]1(C)C(=O)[C@H](O)C3=C(C)[C@@H](OC(=O)[C@H](O)[C@@H](NC(=O)OC(C)(C)C)c4ccccc4)C[C@@](O)([C@@H](OC(=O)c4ccccc4)[C@H]21)C3(C)C [Taxotere ®] | 0.0005 µM | 0.428 µM |  |  |  |  |  |
|  | CC[C@]1(O)C[C@@H]2CN(CCc3c([nH]c4ccccc34)[C@@](C(=O)OC)(c3cc4c(cc3OC)N(C)[C@H]3[C@@](O)(C(=O)OC)[C@H](OC(C)=O)[C@]5(CC)C=CCN6CC[C@]43[C@@H]65)C2)C1 [Vinblastine] | 0.0006 µM | 0.558 µM |  |  |  |  |  |
|  | CC[C@@]1(O)C(=O)OCc2c1cc1n(c2=O)Cc2cc3ccccc3nc2-1 [Camptothecin ®] |  |  | 0.0219 µM | 0.174 µM | one-eighth |  |  |
| low bioavailability | O=C(Nc1cc(C(F)(F)F)ccc1Oc1ccc(Cl)c2ccccc12)c1cc(Cl)ccc1O [5-chloro-N-[2-(4-chloro-naphtalen-1-yloxy)-5-trifluoromethyl-phenyl]-2-hydroxy-benzamide] | 0.739 µM | 0.754 µM | 0.739 µM | 1.48 µM | two-fold; also recorded: twofold | 0.592 µM | 0.8 µM |
|  | COc1cccc2c1C(=O)c1c(O)c3c(c(O)c1C2=O)C[C@@](O)(C(=O)CO)C[C@@H]3O[C@H]1C[C@H](N)[C@@H](O)[C@H](C)O1 [Epirubicin] |  |  | 0.15 µM | 1.11 µM | one-seventh | 0.15 µM | 0.958 µM |
